Results taken from publication PMC12420824, “Discovery of a selective alpha-kinase 1 inhibitor for the rare genetic disease ROSAH syndrome” (Nature Communications, 2025).

target: ALPK1 (Homo sapiens, UniProt Q96QP1); assay: TR-FRET (HTRF) kinase assay; details: 6.25 µM ATP, 20 nM ADP-D-heptose
Sequence (Q96QP1 whole entry): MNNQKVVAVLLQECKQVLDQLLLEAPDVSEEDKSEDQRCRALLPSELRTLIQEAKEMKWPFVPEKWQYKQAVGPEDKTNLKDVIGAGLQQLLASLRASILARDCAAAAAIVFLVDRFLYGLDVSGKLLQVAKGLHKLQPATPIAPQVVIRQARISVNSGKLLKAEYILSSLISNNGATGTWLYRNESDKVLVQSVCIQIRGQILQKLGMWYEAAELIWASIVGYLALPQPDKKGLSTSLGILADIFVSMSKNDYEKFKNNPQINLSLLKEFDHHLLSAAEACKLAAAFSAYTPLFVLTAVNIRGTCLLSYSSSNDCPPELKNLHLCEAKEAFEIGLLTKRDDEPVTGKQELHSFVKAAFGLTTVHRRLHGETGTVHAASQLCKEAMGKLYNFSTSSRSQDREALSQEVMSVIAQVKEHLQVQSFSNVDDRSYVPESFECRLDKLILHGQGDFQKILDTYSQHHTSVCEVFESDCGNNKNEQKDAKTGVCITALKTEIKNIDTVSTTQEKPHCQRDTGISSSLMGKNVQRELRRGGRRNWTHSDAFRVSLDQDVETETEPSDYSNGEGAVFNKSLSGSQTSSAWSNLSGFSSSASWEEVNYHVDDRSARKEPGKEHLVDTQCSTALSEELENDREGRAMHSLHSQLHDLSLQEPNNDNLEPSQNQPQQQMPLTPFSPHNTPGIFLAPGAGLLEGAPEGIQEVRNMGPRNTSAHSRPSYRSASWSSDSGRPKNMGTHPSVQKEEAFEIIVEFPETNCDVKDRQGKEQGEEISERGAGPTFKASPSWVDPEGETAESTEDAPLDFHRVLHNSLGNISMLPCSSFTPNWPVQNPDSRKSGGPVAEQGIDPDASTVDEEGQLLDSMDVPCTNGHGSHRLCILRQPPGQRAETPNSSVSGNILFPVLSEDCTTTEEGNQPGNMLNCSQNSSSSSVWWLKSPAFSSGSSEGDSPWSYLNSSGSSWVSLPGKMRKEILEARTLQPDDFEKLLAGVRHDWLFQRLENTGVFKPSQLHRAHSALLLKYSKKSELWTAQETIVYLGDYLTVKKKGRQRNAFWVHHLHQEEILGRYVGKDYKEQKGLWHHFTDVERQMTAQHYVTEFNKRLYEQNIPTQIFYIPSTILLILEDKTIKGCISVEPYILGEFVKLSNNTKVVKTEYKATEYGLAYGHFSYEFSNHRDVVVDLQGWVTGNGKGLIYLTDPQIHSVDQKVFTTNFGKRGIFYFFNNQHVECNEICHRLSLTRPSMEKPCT

HTRF Assay (IC50) | SMILES
No activity | COc1ccccc1CNC(=O)Nc1nc(C2(c3ccccc3)CCC2)cs1 [Compound 8]
No activity | COc1ccccc1CNC(=O)Nc1nc(C2(c3ccccc3)CC2)cs1 [Compound 7]
No activity | COc1ccccc1CNC(=O)Nc1nc(C(C)(C)c2cccc(Br)c2)cs1 [Compound 6]

same assay, conditions: read-out: HTRF Assay (IC50); 6.25 µM ATP, 20 nM ADP-D-heptose

SMILES | IC50 [nM]
CC(C)(c1ccc(F)cc1)c1csc(NC(=O)c2c(F)cc(N3CCNCC3)cc2F)n1 [Compound 61] | 23
CC(C)(c1ccc(F)cc1)c1csc(NC(=O)NCc2ccc(N3CCNCC3)cc2)n1 [Compound 14] | 915
C#CC(C)(c1ccc(Cl)cc1)c1csc(NC(=O)c2c(F)cc(N3CCN(C)CC3)cc2F)n1 (centres unmarked) [Compound 51] | 425
CC(c1ccc(Cl)cc1)c1csc(NC(=O)c2c(F)cc(N3CCNCC3)cc2F)n1 (centres unmarked) [Compound 59] | 270
COc1cccc2sc(NC(=O)c3c(F)cc(N4CCC(N)C4)cc3F)nc12 (centres unmarked) [Compound 38] | 125
CC(C)(c1ccc(Cl)cc1)c1csc(NC(=O)NCc2ccc(N3CCNCC3)cc2)n1 [Compound 11] | 44
CC(C)(c1ccccc1)c1csc(NC(=O)NCc2ccccc2)n1 [Compound 3] | 2100
CC(c1ccc(Br)cc1)c1csc(NC(=O)NCc2ccc(N3CCNCC3)cc2)n1 (centres unmarked) [Compound 17] | 391
COc1cc(CNC(=O)Nc2nc(C(C)(C)c3ccc(Br)cc3)cs2)ccc1N1CCNCC1 [Compound 26] | 161
C#CC(CC)(c1ccc(Cl)cc1)c1csc(NC(=O)c2c(F)cc(N3CCNCC3)cc2F)n1 (centres unmarked) [Compound 66] | 83
C#CC(CC)(c1ccc(Br)cc1)c1csc(NC(=O)NCCO)n1 (centres unmarked) [Compound 32] | 886
CC(C)(c1ccc(C#N)cc1)c1csc(NC(=O)NCc2ccc(N3CCNCC3)cc2)n1 [Compound 13] | 236
C#CC(C)(c1ccc(Br)cc1)c1csc(NC(N)=O)n1 (centres unmarked) [Compound 30] | 130
O=C(NCc1ccc(N2CCNCC2)cc1)Nc1nc(C(CO)c2ccc(Br)cc2)cs1 (centres unmarked) [Compound 16] | 5620
CC(C)(c1ccc(Br)cc1)c1csc(NC(=O)NCc2ccc(N3CCNCC3)c(Cl)c2)n1 [Compound 24] | 233
O=C(Nc1nc(Cc2ccccn2)cs1)c1c(F)cc(N2CCNCC2)cc1F [Compound 60] | 1270
C#CC(C)(c1ccc(OC)cc1)c1csc(NC(N)=O)n1 (centres unmarked) [Compound 31] | 94
C#CC(C)(c1ccc(Cl)cc1)c1csc(NC(N)=O)n1 (centres unmarked) [Compound 34] | 48
COCC(C)(c1ccc(Cl)cc1)c1csc(NC(=O)c2c(F)cc(N3CCNCC3)cc2F)n1 (centres unmarked) [Compound 74] | 42
COc1ccc(C(C)(C)c2csc(NC(=O)NCc3ccc(N4CCNCC4)c(F)c3)n2)cc1 [Compound 21] | 84
CC(C)(c1ccccc1)c1csc(NC(=O)NCc2ccccc2)n1 [Compound 2] | 2500

SMILES | IC50 [nM]
C#CC(C)(c1ccc(Cl)cc1)c1csc(NC(=O)c2c(F)cc(N3CCNCC3CO)cc2F)n1 (centres unmarked) [Compound 56] | 20
CC(c1ccccc1)(c1ccc(Cl)cc1)c1csc(NC(=O)c2c(F)cc(N3CCNCC3)cc2F)n1 (centres unmarked) [Compound 70] | 577
C#CC(C)(c1ccc(Cl)cc1)c1csc(NC(=O)c2ccc(N3CCNCC3)cc2F)n1 (centres unmarked) [Compound 48] | 151
C#CC(C)(c1ccc(Cl)c(F)c1)c1csc(NC(=O)c2c(F)cc(N3CCNCC3)cc2F)n1 (centres unmarked) [Compound 67] | 17
COc1cccc2sc(NC(=O)c3c(F)cc(N4CCNCC4)cc3F)nc12 [Compound 43] | 209
C#CC(C)(c1ccc(Cl)cc1)c1csc(NC(=O)c2c(F)cc(N3CCC(N)C3)cc2F)n1 (centres unmarked) [Compound 54] | 31
COc1ccc(C(C)(C)c2csc(NC(=O)NCc3ccc(N4CCNCC4)cc3)n2)cc1 [Compound 20] | 122
CC#CC(C)(c1ccc(Cl)cc1)c1csc(NC(=O)c2c(F)cc(N3CCNCC3)cc2F)n1 (centres unmarked) [Compound 69] | 45
C#CC(C)(c1ccc(Cl)cc1)c1csc(NC(=O)c2ccc(N3CCNCC3)cc2)n1 (centres unmarked) [Compound 45] | 38
C#CC(C)(c1ccc(Cl)cc1)c1csc(NC(=O)c2ccc(N3CCNCC3)nc2)n1 (centres unmarked) [Compound 46] | 167
C#CC(C)(c1ccc(Cl)cc1)c1csc(NC(=O)c2c(F)cc(N3CCNC(CO)C3)cc2F)n1 (centres unmarked) [Compound 55] | 317
C#CC(C)(c1ccc(Cl)cc1)c1csc(NC(=O)c2c(F)cc(N3CCNCC3CC)cc2F)n1 (centres unmarked) [Compound 58] | 70
CC(C)(c1ccc(Br)cc1)c1csc(NC(=O)NCc2ccc(N3CCNCC3)c(F)c2)n1 [Compound 23] | 138
COc1cccc2sc(NC(=O)c3c(F)cc(OCCO)cc3F)nc12 [Compound 40] | 560
CCOCC(C)(c1ccccc1)c1csc(NC(=O)c2c(F)cc(N3CCNCC3)cc2F)n1 (centres unmarked) [Compound 75] | 642
C#CC(C)(c1ccc(Cl)cc1)c1csc(NC(=O)c2c(F)cc(NCCO)cc2F)n1 (centres unmarked) [Compound 52] | 405
CC(C)(c1ccc(Br)cc1)c1csc(NC(=O)NCc2ccc(N3CCNCC3)cc2)n1 [Compound 18] | 130
CC(c1ccc(Cl)cc1)(c1csc(NC(=O)c2c(F)cc(N3CCNCC3)cc2F)n1)C1CC1 (centres unmarked) [Compound 71] | 25
COc1cccc2sc(NC(=O)c3c(F)cc(N4CCNC(C)C4)cc3F)nc12 (centres unmarked) [Compound 44] | 349
COc1cccc2sc(NC(=O)c3c(F)cc(N4CCN(CCO)CC4)cc3F)nc12 [Compound 42] | 5310

Results, then the molecule that gave them:

IC50 [nM] | SMILES
462 | Cc1cc(CNC(=O)Nc2nc(C(C)(C)c3ccc(Br)cc3)cs2)ccc1N1CCNCC1 [Compound 25]
3750 | COc1ccccc1CNC(=O)Nc1nc(C(C)c2ccccc2)cs1 (centres unmarked) [Compound 9]
507 | COc1cccc2sc(NC(=O)c3c(F)cc(NCCN(C)C)cc3F)nc12 [Compound 37]
77 | C#CC(C)(c1csc(NC(=O)c2c(F)cc(N3CCNCC3)cc2F)n1)c1ccc(Cl)cc1F (centres unmarked) [Compound 65]
73 | C#CC(C)(c1ccc(OC(F)F)cc1)c1csc(NC(=O)c2c(F)cc(N3CCNCC3)cc2F)n1 (centres unmarked) [Compound 73]
13 | C#CC(C)(c1ccc(C)cc1)c1csc(NC(=O)c2c(F)cc(N3CCNCC3)cc2F)n1 (centres unmarked) [Compound 68]
2280 | COc1cccc2sc(NC(=O)c3c(F)cc(N4CCC(CO)CC4)cc3F)nc12 [Compound 41]
71 | C#CC(C)(c1ccc(Br)cc1)c1csc(NC(=O)NCCO)n1 (centres unmarked) [Compound 29]
2200 | COc1ccccc1CNC(=O)Nc1nc(C(C)(C)c2ccccc2)cs1 [Compound 4]
182 | COCC(C)(c1ccccc1)c1csc(NC(=O)c2c(F)cc(N3CCNCC3)cc2F)n1 (centres unmarked) [Compound 62]
1130 | CC(C)(c1ccc(OC(F)(F)F)cc1)c1csc(NC(=O)NCc2ccc(N3CCNCC3)cc2)n1 [Compound 10]
18 | C#CC(C)(c1ccc(OC)cc1)c1csc(NC(=O)c2c(F)cc(N3CCNCC3)cc2F)n1 (centres unmarked) [Compound 72]
732 | CC(C)(c1ccc(O)cc1)c1csc(NC(=O)NCc2ccc(N3CCNCC3)cc2)n1 [Compound 22]
1300 | COc1cccc2sc(NC(=O)c3c(F)cccc3F)nc12 [Compound 35]
1100 | COc1ccccc1CNC(=O)Nc1nc(C(C)(C)c2ccc(Br)cc2)cs1 [Compound 5]
5000 | O=C(NCc1ccccc1)Nc1nc(C2(c3ccccc3)CCCC2)cs1 [Compound 1]
3190 | COc1cccc2sc(NC(=O)c3c(F)cc(N4CCC(O)C4)cc3F)nc12 (centres unmarked) [Compound 39]
1130 | COCCNC(=O)Nc1nc(C(C)(C)c2ccc(Br)cc2)cs1 [Compound 28]
429 | CCC(C)(c1ccc(Br)cc1)c1csc(NC(=O)NCc2ccc(N3CCNCC3)cc2)n1 (centres unmarked) [Compound 19]
284 | CC(C)(c1ccc(I)cc1)c1csc(NC(=O)NCc2ccc(N3CCNCC3)cc2)n1 [Compound 15]
437 | O=C(Nc1nc(C2(c3ccc(Br)cc3)CCCC2)cs1)c1c(F)cc(N2CCNCC2)cc1F [Compound 63]
321 | COc1cccc2sc(NC(=O)c3c(F)cc(N4CCN(Cc5ccccc5)C(=O)C4)cc3F)nc12 [Compound 36]
14 | C#CC(C)(c1ccc(F)cc1)c1csc(NC(=O)c2c(F)cc(N3CCNCC3)cc2F)n1 (centres unmarked) [Compound 64]
1550 | C#CC(C)(c1ccc(Cl)cc1)c1csc(NC(=O)c2c(F)ccc(OC)c2F)n1 (centres unmarked) [Compound 47]
312 | C#CC(C)(c1ccc(Cl)cc1)c1csc(NC(=O)c2c(Cl)cc(N3CCNCC3)cc2Cl)n1 (centres unmarked) [Compound 53]
558 | COCC(C)(c1ccc(Cl)cc1)c1csc(NC(=O)NCCO)n1 (centres unmarked) [Compound 33]
155 | CC(C)(c1ccc(C2CC2)cc1)c1csc(NC(=O)NCc2ccc(N3CCNCC3)cc2)n1 [Compound 12]

same assay, conditions: read-out: IC50 in TR-FRET assay; 6.25 µM ATP, 20 nM ADP-D-heptose

IC50 [nM] | SMILES
11000 | COc1ccc(OC)c2sc(NC(=O)c3c(F)cccc3F)nc12 [Hit 2]
4000 | Nc1nc(C2(c3ccccc3)CCCC2)cs1 [Hit 1]

target: T1, full-length ALPK1 (Homo sapiens, UniProt Q96QP1); assay: Thermal shift assay (TSA); format: binding; details: pilot TSA screen / assay validation
T1 construct: recombinant full-length ALPK1 kinase purified from Sf9 cells; 3xFlag (C); made in house; host or cells: Sf9 insect cells (baculovirus, pFAST-BAC)
Method: A small molecule library containing ~160,000 compounds (HTS Diversity V2) was prepared by WuXi AppTec (Shanghai, China) in 384 well thin-wall qPCR plates, with 20 nL of 10 mM compound preparations in each well. On each screening plate, 2 columns of wells were loaded with 20 nL of pure DMSO to leave spaces for negative controls (no compounds) and the positive control (AS-252424). […] The mixture was spun down at 1000 rpm for 1 min, then immediately applied to a protein melting reaction on a Roche LightCycler® 480 II Real-time PCR system, heating the mixture from 30 °C to 50 °C at the ramp rate of 0.02 °C/s while continuously acquiring the fluorescence signal. The melting temperature (Tm) of the ALPK1 protein with or without each compound was calculated using the Protein Thermal Shift™ Analysis Desktop Software v1.2 (Thermo Fisher Scientific). For positive control wells, 40 μM AS-252424 in 5 μl compound solvent was added manually and used as a positive control in the thermal shift screening.

T1 sequence (Q96QP1 whole entry): as above

SMILES | increase in melting temperature (Tm) [°C]
Nc1ncnc2c1ncn2[C@@H]1O[C@H](COP(=O)(O)OP(=O)(O)OP(=O)(O)O)[C@@H](O)[C@H]1O [ATP] | 1.1
